We go through seven compounds from patent publication US8268864B2, “Combination of anticholinergics and leukotriene receptor antagonists for the treatment of respiratory diseases” (Meda Pharma GmbH & Co. KG, priority 2005, dated 2012).

Assay [1] has as its system chemotactic response in the guinea pig conjunctiva. Conditions: guinea pig conjunctiva (Chan); cited from earlier work.
For assay [2] the following is noted: inhaled; asthmatic subjects (Christie); cited from earlier work.
Assay [3] deals with IL-2 expression. As to conditions: ovalbumin-sensitized Brown Norway rats (Lin et al.); cited from earlier work.
For assay [4] the following is noted: topically into the eyes; allergic conjunctivitis in rats (Papathanassiou et al.); cited from earlier work.
For assay [5] the following is noted: inhaled; asthmatic subjects (Makker); cited from earlier work.
Assay [6] deals with IL-2 release. Conditions: R,R-glycopyrrolate alone, up to 10 μmol/l; TPA 25 nM / ionomycin 1 μg/ml. The source says: (§1) Not only TNFα but also IL-2 plays an important role in inflammatory airway diseases. It is known that in certain forms of asthma (e.g. intrinsic and occupational), particular subsets of T cells produce, among others, IL-2 (Ricci et al.; J Investig Allergol Clin Immunol 1994; 4:214-20). Moreover, allergic patients have special populations of T cells which can be induced to secrete IL-2 (McHugh et al.; Clin Exp Allergy 1993; 23:137-44). […] Therefore, the influence of R,R-glycopyrrolate in combination with cysLT-receptor antagonists on TNFα- and interleukin(IL)-2-release was investigated by using human peripheral blood mononuclear cells (PBMCs). The investigations were approved by the University Ethics Committee according to the International Declarations of Helsinki and Tokyo.
(§2) PBMCs were isolated from heparinized blood samples of healthy donors by density gradient centrifugation. An equal volume of Hanks buffer (Life Technologies, Heidelberg, Germany) is added to heparinized whole blood samples. 15 ml Histopaque-1077 (Sigma, Deisenhofen, Germany) are overlayed with a maximum of 40 ml of blood/Hanks mixture were centrifuged for 30 min at room temperature (2000 rpm). A visible band containing PBMCs is transferred to a fresh tube and washed twice with Hanks-buffer. […]

Assay [7] relates to TNFα release. Conditions: R,R-glycopyrrolate alone, up to 10 μmol/l; LPS 100 ng/ml.
Source text: as §1, §2

For assay [8], the system named is M1-M3 receptors. Conditions: cited from earlier work.
Assay [9] addresses M3 muscarinic receptors (Homo sapiens, UniProt P20309). Conditions: kinetics studies (Haddad et al.); cited from earlier work.
For assay [10] the following is noted: inhaled; asthmatic subjects (Lammers); cited from earlier work.

M3 muscarinic receptors, sequence (P20309 whole entry): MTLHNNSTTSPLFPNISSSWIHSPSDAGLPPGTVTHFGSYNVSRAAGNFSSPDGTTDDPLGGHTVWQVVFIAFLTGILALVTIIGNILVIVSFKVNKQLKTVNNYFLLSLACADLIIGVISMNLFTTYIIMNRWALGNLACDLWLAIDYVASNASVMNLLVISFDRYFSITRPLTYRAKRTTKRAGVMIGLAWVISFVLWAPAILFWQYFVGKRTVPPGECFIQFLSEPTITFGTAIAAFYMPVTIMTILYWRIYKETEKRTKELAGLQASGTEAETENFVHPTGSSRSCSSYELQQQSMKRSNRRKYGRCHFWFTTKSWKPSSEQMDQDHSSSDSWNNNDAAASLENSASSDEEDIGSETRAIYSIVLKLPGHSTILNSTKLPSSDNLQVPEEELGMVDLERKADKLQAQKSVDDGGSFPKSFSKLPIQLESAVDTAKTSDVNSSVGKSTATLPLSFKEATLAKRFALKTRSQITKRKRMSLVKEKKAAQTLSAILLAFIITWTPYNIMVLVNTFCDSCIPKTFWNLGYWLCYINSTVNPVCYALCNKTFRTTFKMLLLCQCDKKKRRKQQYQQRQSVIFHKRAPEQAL

Take `CN(C)C(=O)CCSC(SCCC(=O)O)c1cccc(/C=C/c2ccc3ccc(Cl)cc3n2)c1` (stereo not shown) [MK-571]: the “in vivo chemotactic response” value in assay [1] is “completely inhibited”.
Regarding `O=C(O)CCS[C@H](c1ccccc1CCCCCCCCc1ccccc1)[C@@H](O)C(=O)O` [pobilukast (SK&F 104353), pobilukast], in assay [2], the LT induced bronchoconstriction result was “inhibited significantly”.
As to `COc1cc(C(=O)NS(=O)(=O)c2ccccc2C)ccc1Cc1cn(C)c2ccc(NC(=O)OC3CCCC3)cc12` [zafirlukast], the IL-2 expression result in [3] is listed as “able to decrease”. In [4], the “development of symptoms and mediator release” value is “effectively inhibit”.
For `COc1cc(C(=O)NS(=O)(=O)c2ccccc2C)ccc1Cc1cn(C)c2ccc(NC(=O)OC3CCCC3)cc12` [ICI 204,219], the “protection against exercise-induced bronchoconstriction” value in assay [5] is on record as “protected significantly”.
Regarding `C[N+]1(C)CC[C@@H](OC(=O)[C@](O)(c2ccccc2)C2CCCC2)C1.[Br-]` [R,R-glycopyrrolate], in assay [6], the “influence on stimulated IL-2 release” value was “had no influence”. Besides, in assay [7], the “influence on LPS-induced TNFα release” value is “did not influence”.
Regarding `C[N+]1(C)CCC(OC(=O)C(O)(c2ccccc2)C2CCCC2)C1` (stereo not shown) [Glycopyrrolate], the “selectivity in binding to the M1-M3 receptors” value in [8] is listed as “no selectivity”. Also, in assay [9], the “dissociation from M3 muscarinic receptors” value is on record as “dissociates slowly”.
Take `CN(C)C(=O)CCS[C@H](SCCC(=O)O)c1cccc(/C=C/c2ccc3ccc(Cl)cc3n2)c1` [verlukast (MK-0679), verlukast]: the “mean FEV1” value in assay [10] was “significant improvement”.
